Source: EP4644391A1, “NOVEL PHENYLQUINOLONE COMPOUND HAVING ANTIBACTERIAL AND ANTICANCER FUNCTIONS, AND PREPARATION THEREOF” (Alphamol Science Ltd (Shanghai), priority 2022, dated 2024)
Converted amounts (≈) assume the structure as drawn. Where two headings read alike, the source gives them in different places.

Key:
[1] = test system: Staphylococcus aureus ATCC43300; test: Resistance test of bacteria against compounds (serial passage, 21 days); assay type: cell-based; details: for MIC: Staphylococcus aureus, ATCC43300, 504 h, read-out: MIC at the end of the experiment
Experimental: This example provides a resistance test of bacteria against compounds, and the specific experimental method is as follows. • 1. […] It was ensured that among the 6 final concentrations of the drug diluted into the wells, some were higher than the original MIC of the bacteria and some were lower than the original MIC of the bacteria. • 2. Preparation of bacterial liquid: 10 mL of culture medium was taken and added to a sterilized plate using a pipette, then 100 µL of the above-mentioned passaged bacterial liquid was added, and mixed well for later use. • 3. The above-mentioned diluted bacterial liquid was taken and added to a 96-well plate using a pipette, 180 µL per well, 3 wells per group, 6 groups in total. 20 µL of drug solution was added to each well (note: it is necessary to replace the pipette tip each time the drug is added), so that the final drug concentrations were 2 µg/mL, 1 µg/mL, 0.8 µg/mL, 0.4 µg/mL, 0.2 µg/mL, 0.1 µg/mL, respectively. The well with 200 µL of diluted bacterial liquid was used as the positive control well, and the well with 200 µL of culture medium was used as the negative control well.
The test object was Staphylococcus aureus (S. aureus). The specific results are shown in FIG1.

E. coli ATCC 25922 = test: In vitro antibacterial activity assay (MIC, broth dilution); assay type: cell-based; details: Escherichia coli, ATCC25922
Excerpt: (§1) The method used to indicate the activity of the compounds in this example is to record the minimum inhibitory concentration (MIC) of the compounds against bacteria. The specific experimental method is as follows: • 1. The bacterial liquid cultured from a single colony was taken, and diluted into autoclaved CAMHB broth in a ratio of 1:1000, and mixed well. • 2. The prepared drug solution was filtered through a sterile 0.22µm syringe filter and placed in a sterile EP tube for later use. • 3. A 96-well plate was taken, and 20µL of drug solution (400µg/mL) was added to each well in the first column of the 96-well plate. Then, 180µL of diluted bacterial liquid was added and mixed well (Perform 3 replicate rows for each drug). The same process was performed for the hydrochloride drug. • 4. 100 µL of diluted bacterial liquid was added to each well in the remaining 11 columns of the 96-well plate. Drugs are the same as above. • 5. Serial dilution: 100µL of liquid was taken from the first column to the second column, mixed well, then 100µL of liquid was taken from the second column to the third column, mixed well, and so on, sequentially diluting down to the last column (column 12). After mixing column 12 well, 100µL of liquid thereof was discarded. The drug concentration in each well was decreased by two-fold serially (the concentration in the first well is 40µg/mL). • 6. Blank CAMHB broth without added bacteria liquid was added to 3 blank wells in the 96-well plate, as negative control. • 7. The diluted bacterial liquid was added to 3 blank wells in the 96-well plate, as positive control. • 8. Incubated at 37°C for 16 hours. • 9. Results reading: the minimum inhibitory concentration is the minimum drug concentration at which no bacterial growth is visible to the naked eye and without turbidity.

E. feacium ATCC 700221 = test: as above; assay type: cell-based; details: Table 1; 37°C, 16 hours; read-out: G+ bacteria MIC E. feacium ATCC 700221
Excerpt: as §1

A. baumannii ATCC 17978 = test: as above; assay type: cell-based; details: Acinetobacter baumannii, ATCC17978; Table 2; 37°C, 16 hours; read-out: G- bacteria MIC A. baumannii ATCC 17978
Excerpt: as §1

S. aureus ATCC 43300 = test: as above; assay type: cell-based; details: Staphylococcus aureus, ATCC43300
Excerpt: as §1

P.aeruginosa ATCC 27853 = test: as above; assay type: cell-based; details: Pseudomonas aeruginosa, ATCC27853; Table 2; 37°C, 16 hours; read-out: G- bacteria MIC P.aeruginosa ATCC 27853
Excerpt: as §1

[2] = test system: methicillin-resistant Staphylococcus aureus; assay type: in vivo, Kunming mice; details: for reduction of necrosis area compared with the control group: 4 consecutive days, measured on 5th day
Experimental: Kunming mice (20±2 g) were anesthetized with chloral hydrate and shaved, and then 50 µL of 4×10^7 CFU/mL of methicillin-resistant Staphylococcus aureus was subcutaneously injected. One day later, 100 µL of 0.02, 2 and 200 mg/kg of Example 29 were subcutaneously injected respectively, and 100 µL of normal saline was injected for the control group. The drug was administered for consecutive 4 days, and mice were euthanized on the 5th day, and the area of abscess was measured.

[3] = Table 2, 37°C, 16 hours, read-out: G- bacteria MIC E. coli ATCC 25922
[4] = Table 1, 37°C, 16 hours, read-out: G+ bacteria MIC S. aureus ATCC 43300

Row | Structure (SMILES) | initial MIC compared with ciprofloxacin and vancomycin ([1]; Staphylococcus aureus ATCC43300, start of resistance test) | MIC [1] [µg/mL] | MIC (E. coli ATCC 25922; [3]) [µg/mL] | MIC (E. coli ATCC 25922; Table 3, read-out: E. coli ATCC 25922 MIC) [µg/mL] | MIC (E. feacium ATCC 700221) [µg/mL] | MIC (A. baumannii ATCC 17978) [µg/mL] | MIC (S. aureus ATCC 43300; [4]) [µg/mL] | MIC (S. aureus ATCC 43300; Table 3, read-out: S. aureus ATCC 43300 MIC) [µg/mL] | MIC (P.aeruginosa ATCC 27853) [µg/mL] | reduction of necrosis area compared with the control group ([2]; 0.02 mg/kg subcutaneous) [%] | reduction of necrosis area compared with the control group ([2]; 2 mg/kg subcutaneous) [%] | antibacterial effect ([2]; concentrations 4 µg/mL and 400 µg/mL (corresponding to 0.02 mg/kg, 200 mg/kg)) | observation at the subcutaneous administration site ([2]; mouse, in vivo, sc, 200 mg/kg) | resistance of bacteria in the subsequent culture ([1]; Staphylococcus aureus ATCC43300, serial passage)
1 | O=C(O)c1cn(C2CC2)c2c(Cl)c(-c3ccc(S(=O)(=O)NCCCC(F)(F)F)nc3)c(F)cc2c1=O [Example 29, 8-chloro-1-cyclopropyl-6-fluoro-4-oxo-7-(6-(N-(4,4,4-trifluorobutyl)sulfamoyl)pyridin-3-yl)-1,4-dihydroquinolin-3-carboxylic acid] | superior | 2 (≈ 3.65 µM) | ≤ 0.1 | ≤ 1 | 1 to 8 (≈ 1.83 to 14.6 µM) | ≤ 0.1 | ≤ 0.1 | ≤ 1 | ≤ 0.1 | 78.09 | 81.21 | good antibacterial effect | certain bleeding symptom in body surface appeared | 
2 | O=C(O)c1cn(C2CC2)c2cc(N3CCNCC3)c(F)cc2c1=O [Ciprofloxacin] |  | 128 (≈ 386 µM) | 0.1 to 1 (≈ 0.302 to 3.02 µM) |  | > 8 | 0.1 to 1 (≈ 0.302 to 3.02 µM) | 0.1 to 1 (≈ 0.302 to 3.02 µM) |  | 0.1 to 1 (≈ 0.302 to 3.02 µM) |  |  |  |  | increased rapidly
